Assay results reported in patent US11807644B2 (PMV Pharmaceuticals, Inc., priority 2020, dated 2023).

Target: T1, recombinant His-tag Y220C p53 DBD protein (Homo sapiens, UniProt P04637, Y220C)
T1 construct: recombinant His-tag Y220C p53 DBD protein (amino acids #˜94-312)
Assay: In vitro DNA binding activity assay (TR-FRET): binding of His-tag Y220C p53 DBD to biotin-labeled consensus DNA
Format: biochemical
Details: SC150 = concentration to increase DNA binding by […], His-tag Y220C p53 DBD, biotin-labeled consensus DNA

Row | Y220C SC150 (μM) | Compound
1 | * (* = 0 μM ≤ SC150 < 0.1 μM) | CN1CC[C@@H](Nc2cccc3c2cc(-c2noc(CNC(=O)c4cnc(C5(C)CCOCC5)s4)n2)n3CC(F)(F)F)[C@@H](F)C1 [Compound 473B, N-{[3-(4-{[(3S,4R)-3-fluoro-1-methylpiperidin-4-yl]amino}-1-(2,2,2-trifluoroethyl)-1H-indol-2-yl)-1,2,4-oxadiazol-5-yl]methyl}-2-(4-methyloxan-4-yl)-1,3-thiazole-5-carboxamide]
2 | * (* = 0 μM ≤ SC150 < 0.1 μM) | COCC1(n2ccc(C(=O)NCc3nc(-c4cc5c(N[C@@H]6CCNC[C@@H]6F)cccc5n4CC(F)(F)F)no3)c2)CC1 [Compound 475B, N-{[3-(4-{[(3S,4R)-3-fluoropiperidin-4-yl]amino}-1-(2,2,2-trifluoroethyl)-1H-indol-2-yl)-1,2,4-oxadiazol-5-yl]methyl}-1-[1-(methoxymethyl)cyclopropyl]-1H-pyrrole-3-carboxamide]
3 | * (* = 0 μM ≤ SC150 < 0.1 μM) | COCC1(n2ccc(C(=O)NCc3nc(-c4cc5c(N[C@H]6CCNC[C@H]6F)cccc5n4CC(F)(F)F)no3)c2)CC1 [Compound 476B, N-{[3-(4-{[(3R,4S)-3-fluoropiperidin-4-yl]amino}-1-(2,2,2-trifluoroethyl)-1H-indol-2-yl)-1,2,4-oxadiazol-5-yl]methyl}-1-[1-(methoxymethyl)cyclopropyl]-1H-pyrrole-3-carboxamide]
4 | * (* = 0 μM ≤ SC150 < 0.1 μM) | CC1(n2ccc(C(=O)NCc3nc(-c4cc5c(N[C@@H]6CCNC[C@@H]6F)cccc5n4CC(F)(F)F)no3)c2)CCOCC1 [Compound 477B, N-{[3-(4-{[(3S,4R)-3-fluoropiperidin-4-yl]amino}-1-(2,2,2-trifluoroethyl)-1H-indol-2-yl)-1,2,4-oxadiazol-5-yl]methyl}-1-(4-methyloxan-4-yl)-1H-pyrrole-3-carboxamide]
5 | * (* = 0 μM ≤ SC150 < 0.1 μM) | CC1(n2ccc(C(=O)NCc3nc(-c4cc5c(N[C@H]6CCNC[C@H]6F)cccc5n4CC(F)(F)F)no3)c2)CCOCC1 [Compound 478B, N-{[3-(4-{[(3R,4S)-3-fluoropiperidin-4-yl]amino}-1-(2,2,2-trifluoroethyl)-1H-indol-2-yl)-1,2,4-oxadiazol-5-yl]methyl}-1-(4-methyloxan-4-yl)-1H-pyrrole-3-carboxamide]
6 | * (* = 0 μM ≤ SC150 < 0.1 μM) | COC(C)(C)c1ccc(C(=O)NCc2nc(-c3cc4c(N[C@H]5CCNC[C@H]5F)cccc4n3CC(F)(F)F)no2)s1 [Compound 479B, N-{[3-(4-{[(3R,4S)-3-fluoropiperidin-4-yl]amino}-1-(2,2,2-trifluoroethyl)-1H-indol-2-yl)-1,2,4-oxadiazol-5-yl]methyl}-5-(2-methoxypropan-2-yl)thiophene-2-carboxamide]
7 | * (* = 0 μM ≤ SC150 < 0.1 μM) | COC(C)(C)c1ccc(C(=O)NCc2nc(-c3cc4c(N[C@@H]5CCNC[C@@H]5F)cccc4n3CC(F)(F)F)no2)s1 [Compound 480B]
8 | * (* = 0 μM ≤ SC150 < 0.1 μM) | CCOCC1(n2ccc(C(=O)NCc3nc(-c4cc5c(N[C@@H]6CCN(C)C[C@@H]6F)cccc5n4CC(F)(F)F)no3)c2)CC1 [Compound 481B, 1-[1-(ethoxymethyl)cyclopropyl]-N-{[3-(4-{[(3S,4R)-3-fluoro-1-methylpiperidin-4-yl]amino}-1-(2,2,2-trifluoroethyl)-1H-indol-2-yl)-1,2,4-oxadiazol-5-yl]methyl}-1H-pyrrole-3-carboxamide]

Row | Compound | Y220C SC150 (μM)
9 | CN1CC[C@@H](Nc2cccc3c2cc(-c2noc(CNC(=O)c4csc(C5(C)CCOCC5)n4)n2)n3CC(F)(F)F)[C@@H](F)C1 [Compound 474B, N-{[3-(4-{[(3S,4R)-3-fluoro-1-methylpiperidin-4-yl]amino}-1-(2,2,2-trifluoroethyl)-1H-indol-2-yl)-1,2,4-oxadiazol-5-yl]methyl}-2-(4-methyloxan-4-yl)-1,3-thiazole-4-carboxamide] | * (* = 0 μM ≤ SC150 < 0.1 μM)
